≈ marks a conversion by molar mass, not a printed value. Peptide text beside a SMILES is read from it.
Tests used:
Staphylococcus aureus = tested on: Staphylococcus aureus; set-up: method as in PMID 30842436; details: cited from earlier work
rat erythrocytes = experiment: in vitro; assay type: cell-based, rat (Sprague–Dawley); details: for IC10 haemolysis: rat erythrocytes; for IC50: red cells of rat
Protocol: (§1) The haemolytic activity of the 24 structurally related peptides (Table 1) was evaluated in erythrocytes from four different species (human, canine, bovine and rat) employing standard methodology. The subsequent release of haemoglobin was used to assess haemolytic activity as function of peptide and peptidomimetic concentration, with concentrations ranging from 0.15 to 150 µM (Presented in whole in Supplementary information Table S1–S4).
(§2) Human and rat (Sprague–Dawley) blood samples were purchased by Bioreclamation IVT (Westbury, NY, USA), collected in tubes containing heparin as anticoagulant and stored at 4 °C before use. Dog and bovine whole blood was collected from in-house animals at Zoetis Animal Health, Kalamazoo, Michigan and stored at 4 °C in tubes containing heparin as anticoagulant. 10 mL of each whole blood sample were centrifuged at 1,500 × g for 5 min and the resulting plasma fraction was removed from the samples. The pellets were washed with an equal volume (10 mL) of saline, mixing by inversion. The centrifuging and washing steps were repeated 5 times. After the last washing step, a volume of PBS was added, and the resulting samples were diluted 1:10 with PBS to yield an RBC concentration of ~ 5 × 10^8 RBC/mL. The assay was performed in a 384-well polypropylene microplate (Greiner 784201, Greiner Bio-One International, GMBH) through a Bravo Liquid Handling Platform 384 system (Agilent Technologies, Santa Clara, CA, USA) according to the previously published procedures. The compounds were tested in serial 1:1 dilutions in PBS, with final concentrations ranging from 150 to 1.2 µM. Melittin was used as reference lytic peptide. 1% TritonX100 and PBS were used as positive and negative (diluent) controls, respectively. The final concentrations were obtained by adding to the wells 7 µL of each solution, melittin or PBS, followed by 63 µL of RBCs to each well. The plate was sealed, shaken on a plate shaker for 20 s, incubated for one hour at 37 °C. Finally, it was centrifuged at 1,500 × g for 5 min at room temperature. 60 µL of supernatants were removed from all plate wells via a Bravo 384 robot and transferred to a flat-bottomed 384-well plate (Greiner UV-Star #7810801, Greiner Bio-One International, GMBH). The plate was centrifuged at 1,000 g for 1 min to remove air bubbles and optical density was measured at 405 nm using a plate reader. Percentage of haemolysis was calculated with the following equation: %haemolysis=(absorbance of test sample)-absorbance of diluent/absorbance of positive control-absorbance of diluent×100.

in vitro [1] = assay type: cell-based, rat (Sprague–Dawley); details: Sprague-Dawley, rat
Protocol: as §1, §2

[2] = tested on: Staphylococcus pseudintermedius; details: cited from earlier work
human erythrocytes = experiment: in vitro; assay type: cell-based; details: for IC10 haemolysis: human erythrocytes; for IC50: red cells of human
Protocol: as §1, §2

in vitro [3] = assay type: cell-based, human; details: human
Protocol: as §1, §2

canine erythrocytes = experiment: in vitro; assay type: cell-based, dog; details: for IC10 haemolysis: canine erythrocytes; for IC50: red cells of canine
Protocol: as §1, §2

in vitro [4] = assay type: cell-based, dog; details: dog
Protocol: as §1, §2

Pseudomonas aeruginosa = tested on: Pseudomonas aeruginosa; set-up: method as in PMID 30842436; details: cited from earlier work
in vitro [5] = assay type: cell-based, bovine; details: bovine
Protocol: as §1, §2

bovine erythrocytes = experiment: in vitro; assay type: cell-based; details: bovine erythrocytes
Protocol: as §1, §2

Structure (SMILES): CC(C)C[C@@H](NC(=O)[C@H](CCCCN)NC(=O)[C@@H](Cc1ccc2ccccc2c1)NC(=O)[C@@H](Cc1ccccc1)NC(=O)[C@H](N)Cc1ccc2ccccc2c1)C(=O)N[C@@H](CCCCN)C(=O)N[C@@H](CCCCN)C(N)=O [Compound 3, (2-Nal)Ala-Phe-(2-Nal)Ala-Lys-Leu-Lys-Lys] (HELM PEPTIDE1{[N[C@H](Cc1ccc2ccccc2c1)C(=O)[*:2]].[dF].[O=C([C@@H](Cc1ccc2ccccc2c1)N[*:1])[*:2]].K.[dL].K.K.[am]}$$$$V2.0)
- MIC against Staphylococcus aureus (Staphylococcus aureus): 32 to 64 µg/mL
- IC10 haemolysis (rat erythrocytes): > 150 µM
- IC50 (rat erythrocytes): > 150 µM
- hemolysis at 1 h, 150 µM (in vitro [1]): < 8%
- MIC against Staphylococcus pseudintermedius [2]: 16 µg/mL (≈ 15.1 µM)
- IC10 haemolysis (human erythrocytes): > 150 µM
- IC50 (human erythrocytes): > 150 µM
- hemolysis at 1 h, 150 µM (in vitro [3]): < 8%
- IC10 haemolysis (canine erythrocytes): 118.3 µM
- IC50 (canine erythrocytes): > 150 µM
- hemolysis at 1 h, 150 µM (in vitro [4]): 10.5%
- MIC against Pseudomonas aeruginosa (Pseudomonas aeruginosa): > 64 µg/mL
- hemolysis at 1 h, 150 µM (in vitro [5]): < 8%

Structure (SMILES): CC(C)C[C@@H](NC(=O)[C@H](CCCCN)NC(=O)[C@@H](N)CCCCN)C(=O)N[C@@H](CCCCN)C(=O)N[C@H](Cc1cccc2ccccc12)C(=O)N[C@H](Cc1ccccc1)C(=O)N[C@H](Cc1cccc2ccccc12)C(N)=O [Compound 10, Lys-Lys-Leu-Lys-(1-Nal)Ala-Phe-(1-Nal)Ala] (HELM PEPTIDE1{K.K.[dL].K.[O=C([C@@H](Cc1cccc2ccccc12)N[*:1])[*:2]].[dF].[O=C([C@@H](Cc1cccc2ccccc12)N[*:1])[*:2]].[am]}$$$$V2.0)
- MIC against Staphylococcus aureus (Staphylococcus aureus): 16 µg/mL (≈ 15.1 µM)
- IC10 haemolysis (rat erythrocytes): > 150 µM
- IC50 (rat erythrocytes): > 150 µM
- hemolysis at 1 h, 150 µM (in vitro [1]): < 8%
- MIC against Staphylococcus pseudintermedius [2]: 4 to 8 µg/mL
- IC10 haemolysis (human erythrocytes): > 150 µM
- IC50 (human erythrocytes): > 150 µM
- hemolysis at 1 h, 150 µM (in vitro [3]): < 8%
- IC10 haemolysis (canine erythrocytes): 43.4 µM
- IC50 (canine erythrocytes): > 150 µM
- hemolysis at 1 h, 150 µM (in vitro [4]): 36.3%
- MIC against Pseudomonas aeruginosa (Pseudomonas aeruginosa): 16 to 32 µg/mL
- hemolysis at 1 h, 150 µM (in vitro [5]): < 8%

Structure (SMILES): CC(C)C[C@@H](NC(=O)[C@H](CCCCN)NC(=O)[C@H](CCCCN)NC(=O)[C@@H](N)CCCCN)C(=O)N[C@H](Cc1ccc2ccccc2c1)C(=O)N[C@H](Cc1ccccc1)C(=O)N[C@H](Cc1ccc2ccccc2c1)C(N)=O [Compound 12, Lys-Lys-Lys-Leu-(2-Nal)Ala-Phe-(2-Nal)Ala] (HELM PEPTIDE1{K.K.K.[dL].[O=C([C@@H](Cc1ccc2ccccc2c1)N[*:1])[*:2]].[dF].[O=C([C@@H](Cc1ccc2ccccc2c1)N[*:1])[*:2]].[am]}$$$$V2.0)
- MIC against Staphylococcus aureus (Staphylococcus aureus): 8 to 16 µg/mL
- IC10 haemolysis (rat erythrocytes): 105.8 µM
- IC50 (rat erythrocytes): > 150 µM
- hemolysis at 1 h, 150 µM (in vitro [1]): 17.9%
- MIC against Staphylococcus pseudintermedius [2]: 2 to 4 µg/mL
- IC10 haemolysis (human erythrocytes): 34.6 µM
- IC50 (human erythrocytes): > 150 µM
- hemolysis at 1 h, 150 µM (in vitro [3]): 43.5%
- IC10 haemolysis (canine erythrocytes): 29.3 µM
- IC50 (canine erythrocytes): > 150 µM
- hemolysis at 1 h, 150 µM (in vitro [4]): 50.2%
- MIC against Pseudomonas aeruginosa (Pseudomonas aeruginosa): 32 µg/mL (≈ 30.3 µM)
- hemolysis at 1 h, 150 µM (in vitro [5]): < 8%

Structure (SMILES): CC(C)C[C@H](NC(=O)[C@H](CCCCN)NC(=O)[C@H](Cc1ccc2ccccc2c1)NC(=O)[C@H](Cc1ccccc1)NC(=O)[C@@H](N)Cc1ccc2ccccc2c1)C(=O)N[C@@H](CCCCN)C(=O)N[C@@H](CCCCN)C(N)=O [Compound 13, (2-Nal)Ala-Phe-(2-Nal)Ala-Lys-Leu-Lys-Lys] (HELM PEPTIDE1{[N[C@@H](Cc1ccc2ccccc2c1)C(=O)[*:2]].F.[O=C([C@H](Cc1ccc2ccccc2c1)N[*:1])[*:2]].K.L.K.K.[am]}$$$$V2.0; N-terminus assumed)
- MIC against Staphylococcus aureus (Staphylococcus aureus): 16 µg/mL (≈ 15.1 µM)
- IC10 haemolysis (rat erythrocytes): > 150 µM
- IC50 (rat erythrocytes): > 150 µM
- hemolysis at 1 h, 150 µM (in vitro [1]): < 8%
- MIC against Staphylococcus pseudintermedius [2]: 4 to 8 µg/mL
- IC10 haemolysis (human erythrocytes): 44.2 µM
- IC50 (human erythrocytes): 136 µM
- hemolysis at 1 h, 150 µM (in vitro [3]): 55.3%
- IC10 haemolysis (canine erythrocytes): 27.1 µM
- IC50 (canine erythrocytes): > 150 µM
- hemolysis at 1 h, 150 µM (in vitro [4]): 27.4%
- MIC against Pseudomonas aeruginosa (Pseudomonas aeruginosa): 64 µg/mL (≈ 60.6 µM)
- IC10 haemolysis (bovine erythrocytes): 96.7 µM
- hemolysis at 1 h, 150 µM (in vitro [5]): 17.6%

— paper PMC7414031, “Correlation between hemolytic activity, cytotoxicity and systemic in vivo toxicity of synthetic antimicrobial peptides” (Scientific Reports, 2020)
